This is an account of results in patent publication US20100144708A1, “HETEROCYCLIC COMPOUNDS CONTAINING NITROGEN ATOMS OR PHARMACEUTICALLY ACCEPTABLE SALTS THEREOF, PROCESS FOR THE PREPARATION THEREOF AND PHARMACEUTICAL COMPOSITION COMPRISING THE SAME FOR TREATMENT OF CANCER” (Korea Research Instititute of Bioscience and Biotechnology, priority 2006, published 2010).

Molecules are shown by their SMILES.

One test deals with PC-3 (prostate cancer). The experiment in a line: Test for inhibition of tumor cell growth (SRB), PC-3. Format: cell-based, Human. The conditions noted are these: Homo sapiens; 48 hours, SRB staining; read-out: GI50 PC-3 (prostate ancer). Put shortly: (§1)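 Cells seeded in RPMI 1640 with 5% FBS, exposed to compound (final […], units as printed) for 48 hours at 37° C with 5% CO2, including a time-zero plate. TCA-fixed, SRB-stained, absorbance at 540 nm as percent of control; GI50 is the 50% growth-inhibition concentration.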

Test [1] relates to MBA-MB-231 (breast cancer). The experiment in a line: Test for inhibition of tumor cell growth (SRB), MBA-MB-231. It is filed as cell-based, Human. The following applies: Homo sapiens; 48 hours, SRB staining. Put shortly: as §1
A further test concerns ACHN (kidney cancer). The experiment in a line: Test for inhibition of tumor cell growth (SRB), ACHN. Format: cell-based, Human. The following applies: Homo sapiens, ACHN; 48 hours, SRB staining. Put shortly: as §1
The subject of a further test is NUGC-3 (gastric cancer). The experiment in a line: Test for inhibition of tumor cell growth (SRB), NUGC-3. Format: cell-based, Human. The conditions noted are these: Homo sapiens, NUGC-3; 48 hours, SRB staining. Put shortly:
as §1

The test system of test [2] is human prostate cancer cell line PC-3. The experiment in a line: Test for tumor growth inhibition in animal model (PC-3 xenograft). Format: in vivo. The following applies: 30 mg/kg daily, 20 times, intraperitoneal; final day (day 21); vs vehicle-control; p<0.001. The protocol:
Female S.P.F BALB/c nude mice (7-week-old) were grafted with 3×10^7 cells/□ of human prostate cancer cell line PC-3, and then intraperitoneally administered with the compound prepared in Example 55 at a daily dosage of 30 mg/kg 20 times. A positive control group was intraperitoneally administered with adriamycin at a daily dosage of 2 mg/kg 10 times once every two days.
The changes in their body weight are shown in FIG. 1, the changes in tumor size are shown in FIG. 2, and the tumor weights measured on the final day (day 21) are shown in FIG. 3.

In test [3] the test system is human prostate cancer cell line, PC-3 cells. The experiment in a line: Western blot analysis in PC-3 cells. It is filed as cell-based. The following applies: 0, 2, and 5 uM, 24 hours. On the procedure: 4×10^6 of human prostate cancer cell line, PC-3 cells were cultured in 100 mm diameter-culture dishes with RPMI media containing 5% FBS for one day, and then treated with the compound prepared in Example 55 at concentrations of 0, 2, and 5 uM for 24 hours, respectively. Then, the cells were carefully washed with 10[…] of PBS twice, and 1 ml of PBS containing protease inhibitor cocktail (Roche, complete™-mini) (1 tablet/50[…] PBS) was added to the each dish. The cells were collected and sonicated. The sonicated cells were centrifuged using a microcentrifuge at 12000 rpm for 20 minutes, and the supernatant was collected. Then, the amount of protein was determined using a Bradford dye reagent (Bio-Rad), and after running 20[…] of the protein on an SDS-PAGE gel, the protein band was transferred to a nitrocellulose membrane (Bio-Rad). Subsequently, the amounts of each protein were analyzed using primary antibodies and secondary antibodies-HRP (horseradish peroxidase) that are specific to each protein to be tested (Amersham or Bio-Rad), and an ECL chemiluminescence reagent (Amersham).

Test [4] has the same test system. The experiment in a line: Flow cytometric analysis of apoptosis (PI staining) with NAC. The conditions noted are these: 5 uM NAC for 3 hours, then compound 5 uM for 24 hours; compared to cells treated with only the compound. Format: cell-based. On the procedure:
5×10^5 of human prostate cancer cell line, PC-3 cells were cultured in 60 mm diameter-culture dishes with RPMI 1640 media containing 5% FBS in an incubator supplied with 5% CO2 at 37° C. for one day, and then treated with 5 uM NAC (N-acetylcysteine, Sigma) for 3 hours. Then, the cells were treated with the compound prepared in Example 55 at concentrations of 5 uM, cultured for 24 hours. Subsequently, the cells were treated with 0.1% trypsin and detached. The detached cells were transferred to a 15[…] conical tube, and centrifuged at 200×g for 5 minutes to precipitate the cells. Then, the supernatant was removed. 0.5[…] of PBS solution containing 0.1 mg/□ RNase A was added thereto, so as to resuspend the cells. The cells were treated with a PI (propidium iodide) DNA staining solution in a concentration of 50[…]/□ to stain the DNA in the cells for 30 or more minutes. The PI-stained cells were e xcited using a flow cytometer (Becton Dickinson) at 488 nm by a laser beam, and an emission wavelength of 588 nm was represented by a histogram, and then quantitatively analyzed to determine the amount of DNA in the cells.

Consider `CCCCCCCCCCCC(=O)N1CC[N+](CC)(Cc2cccc(C)c2)CC1` [Example 55, 4-dodecanoyl-1-ethyl-1-(3-methylbenzyl)piperazin-1-ium bromide], for which the GI50 in the test on PC-3 (prostate cancer) amounted to 0.41 µg/mL. For the same molecule, halving of growth in test [1] (GI50) required 4.37 µg/mL. In the test with ACHN (kidney cancer), this molecule came in with a GI50 of 3.84 µg/mL. For the same molecule, growth with NUGC-3 (gastric cancer) was halved (GI50) at 0.9 µg/mL. Also, in test [2], the “effect of inhibiting tumor growth” value is reported as 84.0% and the “reduction of tumor weight” value is given as 79.5%. Moreover, in test [3], the “amount of Bcl2” value is given as “down-regulated”, the “amount of RhoB” value was “increased”, the amount of c-abl entry is recorded as “increased” and the “amount of p53” value was “sharply increased”. Also, the “amount of phosphorylated p53” value in test [3] is reported as “sharply increased”. Besides, the degree of apoptosis result in test [4] is “greatly decreased”.
